Among the data in US20090118274A1, “MONOCYCLIC AMINOPROPYL TETRAHYDRO-PYRAZOLO-PYRIDINE MODULATORS OF CATHEPSIN S” (priority 2007, published 2009) are IC50 values, retold here.

What is called IC50 is the midpoint of a concentration-inhibition curve.

One experiment deals with T1, Recombinant human cathepsin S (CatS) (Homo sapiens, UniProt P25774).
T1 construct: made in house
T1 sequence (P25774 115-331): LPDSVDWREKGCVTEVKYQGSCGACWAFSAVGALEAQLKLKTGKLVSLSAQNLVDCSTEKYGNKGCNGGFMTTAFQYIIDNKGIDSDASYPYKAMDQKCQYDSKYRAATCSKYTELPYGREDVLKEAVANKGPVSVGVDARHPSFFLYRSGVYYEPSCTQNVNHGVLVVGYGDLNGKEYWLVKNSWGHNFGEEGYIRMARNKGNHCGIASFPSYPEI
The experiment is described as follows: Recombinant human cathepsin S (CatS) fluorogenic substrate inhibition assay. Type of experiment: biochemical.
Details: not given
Here is the method:
Recombinant human cathepsin S (CatS) was expressed in the baculovirus system and purified in one step with a thiopropyl-sepharose column. […] The assay is run in 150 mM sodium acetate pH 5.0 containing 1.5 mM DTT and 150 mM NaCl. […] Measurements are taken every min for 20 min. The rate is calculated from the slope of the increase in fluorescence and the percent inhibition is calculated from this.
As to `CS(=O)(=O)N1CCc2c(c(-c3ccc(Cl)c(CNC(=O)c4ccc(F)cc4)c3)nn2CC(O)CN2CCC(C(F)(F)F)CC2)C1` (stereo not drawn) [Example 15, N-(2-Chloro-5-{1-[2-hydroxy-3-(4-trifluoromethyl-piperidin-1-yl)-propyl]-5-methanesulfonyl-4,5,6,7-tetrahydro-1H-pyrazolo[4,3-c]pyridin-3-yl}-benzyl)-4-fluoro-benzamide], the IC50 turned out to be 70 nM.
`CS(=O)(=O)N1CCc2c(c(-c3ccc(C(F)(F)F)c(CNC(=O)Oc4ccccc4)c3)nn2CCCN2CCC3(CCNC3=O)CC2)C1` [Example 148, (5-{5-Methanesulfonyl-1-[3-(1-oxo-2,8-diaza-spiro[4.5]dec-8-yl)-propyl]-4,5,6,7-tetrahydro-1H-pyrazolo[4,3-c]pyridin-3-yl}-2-trifluoromethyl-benzyl)-carbamic acid phenyl ester]: the 50% inhibitory concentration (IC50) is 200 nM.

Still in this experiment, the particulars now being: average of results obtained; substrate Z-Valine-Valine-Arginine-AMC 10 μM, pH 5.0; read-out: CatS IC50.
Consider `CS(=O)(=O)N1CCc2c(c(-c3ccc(Cl)c(CNC(=O)c4cccs4)c3)nn2CCCN2CCCC2)C1` [Example 241, Thiophene-2-carboxylic acid 2-chloro-5-[5-methanesulfonyl-1-(3-pyrrolidin-1-yl-propyl)-4,5,6,7-tetrahydro-1H-pyrazolo[4,3-c]pyridin-3-yl]-benzylamide], for which the IC50 is 970 nM.
Still for that read-out and setting: as for `CC(C)(C)OC(=O)NC1CCN(CC(O)Cn2nc(-c3ccc(C(F)(F)F)c(CNC(=O)c4ccc(F)cc4)c3)c3c2CCN(S(C)(=O)=O)C3)CC1` (stereo not drawn) [Example 102], the figure is 30 nM; as for `CC(C)=CC(=O)NCc1cc(-c2nn(CC(O)CN3CCC(F)(F)CC3)c3c2CN(S(C)(=O)=O)CC3)ccc1C(F)(F)F` (stereo not drawn) [Example 31, 3-Methyl-but-2-enoic acid 5-{1-[3-(4,4-difluoro-piperidin-1-yl)-2-hydroxy-propyl]-5-methanesulfonyl-4,5,6,7-tetrahydro-1H-pyrazolo[4,3-c]pyridin-3-yl}-2trifluoromethyl-benzylamide], 110 nM; as for `CS(=O)(=O)N1CCc2c(c(-c3ccc(Cl)c(CNC(=O)c4ccc(F)cc4)c3)nn2CC(O)CN2CCC3(CCNC3=O)CC2)C1` (stereo not drawn) [Example 11, N-(2-Chloro-5-{1-[2-hydroxy-3-(1-oxo-2,8-diaza-spiro[4.5]dec-8-yl)-propyl]-5-methanesulfonyl-4,5,6,7-tetrahydro-1H-pyrazolo[4,3-c]pyridin-3-yl}-benzyl)-4-fluoro-benzamide], 90 nM.
On the same count and under the same terms, the value for `CS(=O)(=O)N1CCc2c(c(-c3ccc(C(F)(F)F)c(CNC(=O)c4ccc(F)cc4)c3)nn2CC(O)CN2CCNCC2)C1` (stereo not drawn) [Example 236, 4-Fluoro-N-{5-[1-(2-hydroxy-3-piperazin-1-yl-propyl)-5-methanesulfonyl-4,5,6,7-tetrahydro-1H-pyrazolo[4,3-c]pyridin-3-yl]-2-trifluoromethyl-benzyl}-benzamide] was 900 nM; that for `CS(=O)(=O)N1CCc2c(c(-c3ccc(Cl)c(CNC(=O)c4ccncc4)c3)nn2CCCN2CCCC2)C1` [Example 235, N-{2-Chloro-5-[5-methanesulfonyl-1-(3-pyrrolidin-1-yl-propyl)-4,5,6,7-tetrahydro-1H-pyrazolo[4,3-c]pyridin-3-yl]-benzyl}-isonicotinamide] was 890 nM; that for `CS(=O)(=O)N1CCc2c(c(-c3ccc(C(F)(F)F)c(CNC(=O)c4ccc(F)cc4)c3)nn2CC(O)CN2CCC(C(=O)O)CC2)C1` (stereo not drawn) [Example 90, 1-[3-(3-{3-[(4-Fluoro-benzoylamino)-methyl]-4-trifluoromethyl-phenyl}-5-methanesulfonyl-4,5,6,7-tetrahydro-pyrazolo[4,3-c]pyridin-1-yl)-2-hydroxy-propyl]-piperidine-4-carboxylic acid] was 150 nM.
For `CS(=O)(=O)N1CCc2c(c(-c3ccc(C(F)(F)F)c(C(=O)NCc4ccccc4)c3)nn2CC(O)CN2CCCC2)C1` (stereo not drawn) [Example 193, N-Benzyl-5-[1-(2-hydroxy-3-pyrrolidin-1-yl-propyl)-5-methanesulfonyl-4,5,6,7-tetrahydro-1H-pyrazolo[4,3-c]pyridin-3-yl]-2-trifluoromethyl-benzamide], the IC50 came to 5600 nM.
The same measure, in the same setting: as for `CS(=O)(=O)N1CCc2c(c(-c3ccc(C(F)(F)F)c(CNC(=O)c4ccc(F)c(F)c4)c3)nn2CC(O)CN2CCCC2)C1` (stereo not drawn) [Example 60, 3,4-Difluoro-N-{5-[1-(2-hydroxy-3-pyrrolidin-1-yl-propyl)-5-methanesulfonyl-4,5,6,7-tetrahydro-1H-pyrazolo[4,3-c]pyridin-3-yl]-2-trifluoromethyl-benzyl}-benzamide], the figure is 210 nM; as for `CS(=O)(=O)N1CCc2c(c(-c3ccc(C(F)(F)F)c(CNS(=O)(=O)c4ccccc4)c3)nn2CC(O)CN2CCCC2)C1` (stereo not drawn) [Example 66, N-{5-[1-(2-Hydroxy-3-pyrrolidin-1-yl-propyl)-5-methanesulfonyl-4,5,6,7-tetrahydro-1H-pyrazolo[4,3-c]pyridin-3-yl]-2-trifluoromethyl-benzyl}-benzenesulfonamide], 2900 nM; as for `CS(=O)(=O)N1CCc2c(c(-c3ccc(Cl)c(CNC(=O)c4ccc(F)cc4)c3)nn2CC(O)CN2CCC(F)(F)C2)C1` (stereo not drawn) [Example 84, N-(2-Chloro-5-{1-[3-(3,3-difluoro-pyrrolidin-1-yl)-2-hydroxy-propyl]-5-methanesulfonyl-4,5,6,7-tetrahydro-1H-pyrazolo[4,3-c]pyridin-3-yl}-benzyl)-4-fluoro-benzamide], 180 nM.
Same read-out and setting: the value for `CS(=O)(=O)N1CCc2c(c(-c3ccc(C(F)(F)F)c(CNC(=O)c4ccc(F)c(Cl)c4)c3)nn2CC(O)CN2CCCC2)C1` (stereo not drawn) [Example 61, 3-Chloro-4-fluoro-N-{5-[1-(2-hydroxy-3-pyrrolidin-1-yl-propyl)-5-methanesulfonyl-4,5,6,7-tetrahydro-1H-pyrazolo[4,3-c]pyridin-3-yl]-2-trifluoromethyl-benzyl}-benzamide] was 190 nM; that for `CS(=O)(=O)N1CCc2c(c(-c3ccc(C(F)(F)F)c(CNC(=O)c4cccc(Cl)c4)c3)nn2CC(O)CN2CCCC2)C1` (stereo not drawn) [Example 166, 3-Chloro-N-{5-[1-(2-hydroxy-3-pyrrolidin-1-yl-propyl)-5-methanesulfonyl-4,5,6,7-tetrahydro-1H-pyrazolo[4,3-c]pyridin-3-yl]-2-trifluoromethyl-benzyl}-benzamide] was 460 nM.
As for `CC(C)CC(=O)NCc1cc(-c2nn(CC(O)CN3CCC(NC(=O)OC(C)(C)C)CC3)c3c2CN(S(C)(=O)=O)CC3)ccc1C(F)(F)F` (stereo not drawn) [Example 244], the IC50 was found to be 50 nM.
Same read-out and setting: as for `CS(=O)(=O)N1CCc2c(c(-c3ccc(Cl)c(CNC(=O)c4ccc(Cl)c(Cl)c4)c3)nn2CCCN2CCCC2)C1` [Example 87, 3,4-Dichloro-N-{2-chloro-5-[5-methanesulfonyl-1-(3-pyrrolidin-1-yl-propyl)-4,5,6,7-tetrahydro-1H-pyrazolo[4,3-c]pyridin-3-yl]-benzyl}-benzamide], the figure is 1020 nM.
The same measure, in the same setting: the value for `CC(C)=CC(=O)NCc1cc(-c2nn(CC(O)CN3CCC(C)(C)CC3)c3c2CN(S(C)(=O)=O)CC3)ccc1C(F)(F)F` (stereo not drawn) [Example 28, 3-Methyl-but-2-enoic acid 5-{1-[3-(4,4-dimethyl-piperidin-1-yl)-2-hydroxy-propyl]-5-methanesulfonyl-4,5,6,7-tetrahydro-1H-pyrazolo[4,3-c]pyridin-3-yl}-2-trifluoromethyl-benzylamide] was 60 nM; that for `CNC(=O)NC1CCN(CC(O)Cn2nc(-c3ccc(Cl)c(CNC(=O)c4ccc(F)cc4)c3)c3c2CCN(S(C)(=O)=O)C3)CC1` (stereo not drawn) [Example 77, N-[2-Chloro-5-(1-{2-hydroxy-3-[4-(3-methyl-ureido)-piperidin-1-yl]-propyl}-5-methanesulfonyl-4,5,6,7-tetrahydro-1H-pyrazolo[4,3-c]pyridin-3-yl)-benzyl]-4-fluoro-benzamide] was 30 nM; that for `CS(=O)(=O)N1CCc2c(c(-c3ccc(C(F)(F)F)c(CNC(=O)C4CCCCCC4)c3)nn2CC(O)CN2CCC3(CCNC3=O)CC2)C1` (stereo not drawn) [Example 167, Cycloheptanecarboxylic acid 5-{1-[2-hydroxy-3-(1-oxo-2,8-diaza-spiro[4.5]dec-8-yl)-propyl]-5-methanesulfonyl-4,5,6,7-tetrahydro-1H-pyrazolo[4,3-c]pyridin-3-yl}-2-trifluoromethyl-benzylamide] was 490 nM.
Take `CS(=O)(=O)N1CCc2c(c(-c3ccc(C(F)(F)F)c(CNC(=O)c4ccc(O)cc4)c3)nn2CC(O)CN2CCCC2)C1` (stereo not drawn) [Example 156, 4-Hydroxy-N-{5-[1-(2-hydroxy-3-pyrrolidin-1-yl-propyl)-5-methanesulfonyl-4,5,6,7-tetrahydro-1H-pyrazolo[4,3-c]pyridin-3-yl]-2-trifluoromethyl-benzyl}-benzamide]: the IC50 came to 260 nM.
As for `CC(=O)NC1CCN(CC(O)Cn2nc(-c3ccc(C(F)(F)F)c(CNC(=O)CC(C)C)c3)c3c2CCN(S(C)(=O)=O)C3)C1` (stereo not drawn) [Example 278, N-(5-{1-[3-(3-Acetylamino-pyrrolidin-1-yl)-2-hydroxy-propyl]-5-methanesulfonyl-4,5,6,7-tetrahydro-1H-pyrazolo[4,3-c]pyridin-3-yl}-2-trifluoromethyl-benzyl)-3-methyl-butyramide], the 50% inhibitory concentration (IC50) worked out at 380 nM.
Same read-out and setting: the value for `CS(=O)(=O)N1CCc2c(c(-c3ccc(C(F)(F)F)c(CNC(=O)c4ccc(F)cc4)c3)nn2CC(O)CN2CCCC2)C1` (stereo not drawn) [Example 57, 4-Fluoro-N-{5-[1-(2-hydroxy-3-pyrrolidin-1-yl-propyl)-5-methanesulfonyl-4,5,6,7-tetrahydro-1H-pyrazolo[4,3-c]pyridin-3-yl]-2-trifluoromethyl-benzyl}-benzamide] was 160 nM; that for `CS(=O)(=O)N1CCc2c(c(-c3ccc(C(F)(F)F)c(CNC(=O)c4ccc(F)cc4)c3)nn2CC(O)CN2CNC(=O)C2)C1` (stereo not drawn) [Example 171, 4-Fluoro-N-(5-{1-[2-hydroxy-3-(4-oxo-imidazolidin-1-yl)-propyl]-5-methanesulfonyl-4,5,6,7-tetrahydro-1H-pyrazolo[4,3-c]pyridin-3-yl}-2-trifluoromethyl-benzyl)-benzamide] was 600 nM.
